Measurements reported in the NIST ThermoML archive (doi:10.1016/j.fluid.2019.06.001).

Conditions: Fluid (supercritical or subcritical phases), Brillouin light scattering technique

CCCCCC [hexane]
Conditions | speed of sound [m/s]
509.17 K, 3500 kPa | 162.1
509.4 K, 4500 kPa | 243.8
509.44 K, 6500 kPa | 331.1
509.57 K, 5500 kPa | 291.1
509.67 K, 7500 kPa | 361.3
511.22 K, 5500 kPa | 286.1
511.26 K, 4500 kPa | 232.7
511.27 K, 6500 kPa | 324.2
511.34 K, 7500 kPa | 355.3
511.69 K, 3500 kPa | 138.7
514.25 K, 7500 kPa | 347.2
514.43 K, 6500 kPa | 314.1
514.46 K, 3500 kPa | 112.5
514.5 K, 4500 kPa | 216.4
514.6 K, 5500 kPa | 272
517.46 K, 7500 kPa | 336.8
517.47 K, 4500 kPa | 201.9
517.58 K, 6500 kPa | 303.6
517.72 K, 3500 kPa | 95.8
517.82 K, 5500 kPa | 260.2
519.87 K, 3500 kPa | 100.4
520.19 K, 7500 kPa | 328.5
520.36 K, 4500 kPa | 183.7
520.46 K, 6500 kPa | 289
520.54 K, 5500 kPa | 245.2
523.4 K, 4500 kPa | 168.4
523.63 K, 6500 kPa | 278.2
523.79 K, 3500 kPa | 112.7
523.89 K, 5500 kPa | 229.4
523.93 K, 7500 kPa | 316.5
527.66 K, 4500 kPa | 155
527.85 K, 3500 kPa | 120.4
528.22 K, 5500 kPa | 210.9
528.42 K, 7500 kPa | 304.2
528.58 K, 6500 kPa | 263.2
533.3 K, 4500 kPa | 131.7
533.43 K, 7500 kPa | 285.3
533.48 K, 6500 kPa | 248.1
533.62 K, 5500 kPa | 194.1
533.83 K, 3500 kPa | 134.2
538.14 K, 4500 kPa | 125
538.33 K, 5500 kPa | 174.8
538.58 K, 6500 kPa | 231.5
538.81 K, 7500 kPa | 270.8
538.84 K, 3500 kPa | 140.1
543 K, 4500 kPa | 125.6
543.14 K, 6500 kPa | 219.9
543.21 K, 5500 kPa | 165.4
543.52 K, 7500 kPa | 259.9
543.69 K, 3500 kPa | 145.3
547.89 K, 5500 kPa | 158.2
547.96 K, 4500 kPa | 130.2
548.14 K, 6500 kPa | 207.4
548.31 K, 3500 kPa | 149.2
548.56 K, 7500 kPa | 248.3
553.1 K, 3500 kPa | 155.1
553.44 K, 7500 kPa | 235.1
553.55 K, 6500 kPa | 194.1
553.6 K, 4500 kPa | 134.9
554.09 K, 5500 kPa | 150.9
558.44 K, 3500 kPa | 161.5
558.48 K, 4500 kPa | 139.2
558.9 K, 5500 kPa | 144.8
559.79 K, 6500 kPa | 180.9
560.33 K, 7500 kPa | 222.2
562.44 K, 4500 kPa | 142.8
562.56 K, 3500 kPa | 164.9
563.13 K, 5500 kPa | 143.4
563.76 K, 6500 kPa | 171.7
563.92 K, 7500 kPa | 215.1
567.95 K, 4500 kPa | 150.6
568.21 K, 3500 kPa | 168.8
568.4 K, 5500 kPa | 146.5
568.54 K, 7500 kPa | 205.6
568.59 K, 6500 kPa | 169
573.12 K, 7500 kPa | 201.1
573.18 K, 5500 kPa | 150
573.36 K, 4500 kPa | 155.7
573.51 K, 6500 kPa | 165.9
574.58 K, 3500 kPa | 174.8
578.08 K, 4500 kPa | 161.3
578.22 K, 5500 kPa | 154
578.65 K, 6500 kPa | 167.9
578.77 K, 3500 kPa | 177.5
579.07 K, 7500 kPa | 191.7
582.79 K, 5500 kPa | 157.3
582.93 K, 4500 kPa | 164.7
583.09 K, 6500 kPa | 165.5
583.3 K, 7500 kPa | 190.5
584.09 K, 3500 kPa | 183
587.91 K, 4500 kPa | 170.5
588.07 K, 5500 kPa | 160.4
588.45 K, 6500 kPa | 166.4
588.59 K, 3500 kPa | 186.5
589.01 K, 7500 kPa | 188.8
592.61 K, 5500 kPa | 164.2
592.78 K, 6500 kPa | 168.5
593.04 K, 4500 kPa | 174.8
593.24 K, 7500 kPa | 187.8
594.05 K, 3500 kPa | 188.6
597.84 K, 4500 kPa | 178.5
597.98 K, 5500 kPa | 169.1
598.14 K, 6500 kPa | 168.6
598.52 K, 7500 kPa | 186.2
598.83 K, 3500 kPa | 192.2
602.73 K, 4500 kPa | 181.2
602.85 K, 5500 kPa | 172
603.05 K, 6500 kPa | 173.4
603.41 K, 3500 kPa | 195.9
603.44 K, 7500 kPa | 186
608.03 K, 4500 kPa | 183.5
608.05 K, 5500 kPa | 178
608.12 K, 6500 kPa | 175.1
608.49 K, 7500 kPa | 185.6
608.96 K, 3500 kPa | 198.5
612.5 K, 5500 kPa | 180.2
612.69 K, 6500 kPa | 179.7
612.7 K, 4500 kPa | 187
613.43 K, 7500 kPa | 187.8
614.5 K, 3500 kPa | 203.1
617.91 K, 4500 kPa | 193.6
618.05 K, 5500 kPa | 184.3
618.21 K, 6500 kPa | 182
618.56 K, 7500 kPa | 190.1
618.79 K, 3500 kPa | 204.3
622.49 K, 6500 kPa | 184.8
622.59 K, 7500 kPa | 191
622.8 K, 5500 kPa | 186.5
623.06 K, 4500 kPa | 195.6
624.52 K, 3500 kPa | 206.1
628.11 K, 5500 kPa | 190.4
628.12 K, 7500 kPa | 194.6
628.15 K, 4500 kPa | 198.3
628.16 K, 6500 kPa | 189
629.29 K, 3500 kPa | 209.3
632.52 K, 4500 kPa | 202.1
632.99 K, 6500 kPa | 192.3
633.06 K, 7500 kPa | 196.8
633.07 K, 5500 kPa | 193.6
633.86 K, 3500 kPa | 210.4
635.27 K, 7500 kPa | 198
635.5 K, 6500 kPa | 194.3
636.04 K, 5500 kPa | 195
636.79 K, 4500 kPa | 204.9
637.99 K, 3500 kPa | 211.6
